In paper PMC6497007, “Development, Validation of LC-MS/MS Method and Determination of Pharmacokinetic Parameters of the Stroke Neuroprotectant Neurounina-1 in Beagle Dog Plasma After Intravenous Administration” (Frontiers in Pharmacology, 2019):
Read-outs that look alike come from different tables or passages of the source.

Columns and labels:
[1] = Pharmacokinetics in plasma after a single intravenous administration to beagle dogs (LC-MS/MS, non-compartmental analysis); assay type: in vivo, beagle dog; details: for C0 / Vd / clearance / k el / half-life: both sexes, beagle, dog, plasma, iv; for C0 / AUC0-inf / AUC0-tlast / AUC%extrap: beagle dog plasma; for k el: read-out: Ke (converted)
Method: Aliquots (0.05 mL) of each plasma sample were added to glass tubes followed by 0.05 mL of IS (ropivacaine 100 ng/mL). The tubes were vortexed for 5 s and 0.1 mL of acetonitrile were added. The samples were vortexed for 40 s, again, and then centrifuged at 2000 ×g for 5 min. The obtained supernatants were transferred to microvials for analysis.
Neuronina-1 was separated in a 150 mm × 4.6 mm x 5 μm Phenomenex C18Luna reversed phase analytical column (Phenomenex Inc., CA, United States). The temperature of the column was maintained constant at 65°C. The mobile phase used was composed by methanol/acetonitrile/water (50/40/10, v/v/v) + 0.1% of formic acid + 1 M ammonium formate at a flow rate of 1 mL/min (split 1:3). The auto-sampler was maintained at room temperature.
The mass spectrometer (Quattro Micro – Micromass, Waters, United Kingdom) equipped with an electrospray source in the ESI positive polarity mode (ES+) was configured for multiple reaction monitoring (MRM) to monitor the transitions 365.3 > 83.9 and 275.2 > 126.0, for neurounina-1 and ropivacaine, respectively. […] To optimize all MS parameters, a standard solution of the analyte and IS was infused into the mass spectrometer. The optimized values of ion spray voltage, collision energy, and cone voltage were, respectively 2800 (V), 20 (eV), and 20 (V) for neurounina-1 and 2800 (V), 15 (eV), and 15 (V) for ropivacaine. Data acquisition and analysis were performed using the software Masslynx 4.0 (Waters Corporation, Milford, MA, United States).
(§1) Beagle dogs (n = 5) of both sexes, aged between 2 and 3 years old, weighing between 10 and 14 kg were provided by Camilo Castelo Branco University, Brazil. The dogs were housed in Domingos Alves Veterinary Hospital in individual rooms and fed with a standard canine food. They had free access to water. The dogs underwent rigorous veterinary control and were all considered healthy based on physical examination and laboratory analysis performed before initiation and after completion of each occasion of the study. At the end of the study, the animals were returned to their habitat. This study was carried out in accordance with the recommendations of the general ethical guidelines established by the Brazilian Society for Laboratory Animal Science (SBCAL). The protocol was approved by the Committee for Ethics in Animal Use – State University of Campinas (CEUA/UNICAMP, protocol n° 3340-1).
(§2) After an overnight (8 h) fasting, a single intravenous dose of 0.1 mg/kg, 0.3 mg/kg, or 1 mg/kg neurounina-1 formulation was administered to beagle dogs, with 7 days washout period between each dose administration. Blood samples (5 mL) from a suitable antecubital vein were collected into heparin-containing tubes before and 0.03, 0.08, 0.17, 0.25, 0.33, 0.5, 1, 2, 3, 4, 6, 8, 12, and 24 h after the administration of each dose. A total of 210 mL of blood was collected during the study. The blood samples treated with sodium heparin were centrifuged at approximately 2000 ×g for 10 min at 4°C and the plasma was stored at -20°C until analysis.
Non-compartmental analysis was used to determine the pharmacokinetic parameters of neurounina-1 after the intravenous administration. The concentration at time zero (C0) was estimated by back-extrapolating from the elimination curve. The area under the plasma concentration vs. time curves from zero to the last detectable concentration (AUC0-tlast) were calculated by applying the linear-log trapezoid rule. Extrapolation of these areas to infinity (AUC0-inf) was done by adding the value Clast/ke to the calculated AUC0-tlast (where Clast = the last detectable concentration). Clearance (CL) was calculated by the formula dose/AUC0-inf. Volume of distribution (Vd) was calculated by the formula CL/ke. The WinNonlin software, version 6.4 (Pharsight Corp, Mountain View, CA, United States) was used. Statistical analysis was performed using GraphPad Prism software, version 3.2 (GraphPad Software, San Diego, California, United States).

[2] = test system: transient middle cerebral artery occlusion (tMCAO); design: method as in Molinaro et al., 2013; details: ref Molinaro et al., 2013, cited from earlier work
[3] = test system: NCX1 and NCX2; design: method as in Molinaro et al., 2013; details: ref Molinaro et al., 2013; cited from earlier work
[4] = test system: beagle dogs; test: Tolerability in beagle dogs after intravenous administration; assay type: in vivo, beagle dog; details: single i.v. 0.1, 0.3 and 1 mg/kg
Method: as §1
as §2, with “The blood samples treated with sodium heparin were centrifuged at approximately 2000 ×g for 10 min at 4°C and the plasma was stored at -20°C until analysis.” left out

[5] = ref Molinaro et al., 2013; cited from earlier work
[6] = Stability tests in beagle dog plasma (QC samples); assay type: in vitro ADME
Method: To assess stability, QC plasma samples (1.5 and 400.0 ng/mL) were subjected to short-term (6 h) incubation at room temperature; four freeze/thaw (-20°C) cycles and 52 h in the autosampler at room temperature. Subsequently, the neurounina-1 concentrations were measured and compared with freshly prepared samples.

[7] = 0.1 mg/kg, mean, 0.1 mg/kg single i.v., beagle dog, n = 5
[8] = 0.1 mg/kg, median, 0.1 mg/kg single i.v., beagle dog, n = 5
[9] = 0.3 mg/kg, mean, 0.3 mg/kg single i.v., beagle dog, n = 5
[10] = 0.3 mg/kg, median, 0.3 mg/kg single i.v., beagle dog, n = 5
[11] = 1 mg/kg, mean, 1 mg/kg single i.v., beagle dog, n = 5
[12] = 1 mg/kg, median, 1 mg/kg single i.v., beagle dog, n = 5
[13] = mean, 0.1 mg/kg single i.v., n = 5
[14] = mean, 0.3 mg/kg single i.v., n = 5
[15] = mean, 1 mg/kg single i.v., n = 5
[16] = median, 0.1 mg/kg single i.v., n = 5
[17] = median, 0.3 mg/kg single i.v., n = 5
[18] = median, 1 mg/kg single i.v., n = 5

`O=C1CN=C(c2ccccc2)c2cc([N+](=O)[O-])ccc2N1CN1CCCC1` [Neurounina-1, 7-nitro-5-phenyl-1-(pyrrolidin-1-ylmethyl)-1H-benzo[e][1,4]diazepin-2(3H)-one] showed a C0 ([1]; 0.1 mg/kg, mean, 0.1 mg/kg single i.v., back-extrapolated, n = 5) of 32.5 ng/mL, a Vd [1, 7] of 130 L and a clearance [1, 7] of 771 mL/min. For the same compound, the k el [1, 7] was 9.72e-05 s⁻¹, the half-life ([1]; 0.1 mg/kg, mean, 0.1 mg/kg single i.v., beagle dog, n = 5, read-out: t1/2 (converted)) was 2.14 h and the C0 ([1]; 0.1 mg/kg, median, 0.1 mg/kg single i.v., n = 5) was 30.6 ng/mL. The Vd [1, 8] was 127 L, the clearance [1, 8] was 795 mL/min and the k el [1, 8] was 0.000106 s⁻¹. For the same compound, the half-life ([1]; 0.1 mg/kg, median, 0.1 mg/kg single i.v., beagle dog, n = 5, read-out: t1/2 (converted)) was 1.67 h, the C0 ([1]; 0.3 mg/kg, mean, 0.3 mg/kg single i.v., back-extrapolated, n = 5) was 111 ng/mL and the Vd [1, 9] was 154 L. The clearance [1, 9] was 793 mL/min, the k el [1, 9] was 8.33e-05 s⁻¹ and the half-life ([1]; 0.3 mg/kg, mean, 0.3 mg/kg single i.v., beagle dog, n = 5, read-out: t1/2 (converted)) was 2.54 h. For the same compound, the C0 ([1]; 0.3 mg/kg, median, 0.3 mg/kg single i.v., n = 5) was 100 ng/mL, the Vd [1, 10] was 103 L and the clearance [1, 10] was 591 mL/min. For the same compound, the k el [1, 10] was 8.61e-05 s⁻¹, the half-life ([1]; 0.3 mg/kg, median, 0.3 mg/kg single i.v., beagle dog, n = 5, read-out: t1/2 (converted)) was 2.16 h and the C0 ([1]; 1 mg/kg, mean, 1 mg/kg single i.v., back-extrapolated, n = 5) was 223 ng/mL. It also gave a Vd [1, 11] of 211 L, a clearance [1, 11] of 1150 mL/min and a k el [1, 11] of 9.17e-05 s⁻¹. It also gave a half-life ([1]; 1 mg/kg, mean, 1 mg/kg single i.v., beagle dog, n = 5, read-out: t1/2 (converted)) of 2.04 h, a C0 ([1]; 1 mg/kg, median, 1 mg/kg single i.v., n = 5) of 197 ng/mL and a Vd [1, 12] of 224 L. It also gave a clearance [1, 12] of 1250 mL/min, a k el [1, 12] of 8.89e-05 s⁻¹ and a half-life ([1]; 1 mg/kg, median, 1 mg/kg single i.v., beagle dog, n = 5, read-out: t1/2 (converted)) of 1.94 h. It also gave a half-life ([1]; beagle dog, overall statement, read-out: half-life (converted)) of ~2 h, an AUC0-inf [1, 13] of 30.10 ng^∗h/mL and an AUC0-tlast [1, 13] of 26.10 ng^∗h/mL. It also gave a t1/2 ([1]; mean, 0.1 mg/kg single i.v., beagle dog, n = 5, 0.1 mg/kg) of 2.02 h, an AUC0-inf [1, 14] of 122.42 ng^∗h/mL and an AUC0-tlast [1, 14] of 115.81 ng^∗h/mL. For the same compound, the t1/2 ([1]; mean, 0.3 mg/kg single i.v., beagle dog, n = 5, 0.3 mg/kg) was 2.36 h, the AUC0-inf [1, 15] was 263.06 ng^∗h/mL and the AUC0-tlast [1, 15] was 257.28 ng^∗h/mL. It also gave a t1/2 ([1]; mean, 1 mg/kg single i.v., beagle dog, n = 5, 1 mg/kg) of 2.13 h, an AUC0-inf [1, 16] of 26.44 ng^∗h/mL and an AUC0-tlast [1, 16] of 23.00 ng^∗h/mL. For the same compound, the AUC%extrap [1, 16] was 3.42%, the AUC0-inf [1, 17] was 133.20 ng^∗h/mL and the AUC0-tlast [1, 17] was 127.76 ng^∗h/mL. The AUC%extrap [1, 17] was 4.56%, the AUC0-inf [1, 18] was 184.06 ng^∗h/mL and the AUC0-tlast [1, 18] was 179.65 ng^∗h/mL. The AUC%extrap [1, 18] was 4.55%, the “Dose linearity of pharmacokinetics” value ([1]; single i.v. doses up to 1.0 mg/kg, beagle dog) was “Linear pharmacokinetics” and the “time after ischemia induction at which the effect was still notable” value ([2]; 0.003 to 30 μg/kg intraperitoneally, mouse tMCAO) was 5 h. For the same compound, the “most effective dosage in an animal model of stroke” value ([2]; administered 3 h after stroke induction) was 0.03 µg/kg, the “protection in animal model of stroke” value ([2]; dose of 0.003 μg/Kg, compared with 0.03 μg/Kg) was “less marked” and the “half maximal effective concentration (EC50)” value [3] was “in the picomolar to low nanomolar range”. The “tolerability, behavior” value [4] was “well tolerated”, the lipophilicity index [5] was “high lipophilicity index” and the toxicity [5] was “low toxicity”. For the same compound, the “Stability, Accuracy(%)” value ([6]; Freeze/thaw (4cycles, -20°C), 1.5 ng/mL, beagle dog plasma) was 92.7%, the “Stability, Accuracy(%)” value ([6]; Freeze/thaw (4cycles, -20°C), 400 ng/mL, beagle dog plasma) was 101.3% and the “Stability, Accuracy(%)” value ([6]; Post-processing (52 h) in autosampler, 1.5 ng/mL, processed beagle dog plasma) was 96.0%. For the same compound, the “Stability, Accuracy(%)” value ([6]; Post-processing (52 h) in autosampler, 400 ng/mL, processed beagle dog plasma) was 101.8%, the “Stability, Accuracy(%)” value ([6]; Short-term (6 h) at room temperature, 1.5 ng/mL, beagle dog plasma) was 94.7% and the “Stability, Accuracy(%)” value ([6]; Short-term (6 h) at room temperature, 400 ng/mL, beagle dog plasma) was 106.5%. For the same compound, the “Degradation in stability tests” value ([6]; four freezing and thawing cycles, 6 h at room temperature, 52 h after processing in the self-injector, beagle dog plasma) was “no significant degradation”.
